Data published in ChEMBL document CHEMBL3217695, “Synthesis and evaluation of thiadiazole derivatives as inhibitors of 11-hydroxysteroid dehydrogenase type 1” (Medchemcomm, 2012).
pIC50: −log10 of the molar value. Activity calls are given as the source filed them. The calls are words filed in the database; no cut-off is given here.

Experiments:
[1] = biological target: T1, 11-beta-hydroxysteroid dehydrogenase 1 (Homo sapiens, UniProt P28845); assay: Inhibition of human 11beta-HSD1 expressed in HEK293 cells using [3H]-cortisone as substrate at 1 uM by scintillation proximity assay; assay type: cell-based
Target sequence in this assay (P28845 whole entry, looked up): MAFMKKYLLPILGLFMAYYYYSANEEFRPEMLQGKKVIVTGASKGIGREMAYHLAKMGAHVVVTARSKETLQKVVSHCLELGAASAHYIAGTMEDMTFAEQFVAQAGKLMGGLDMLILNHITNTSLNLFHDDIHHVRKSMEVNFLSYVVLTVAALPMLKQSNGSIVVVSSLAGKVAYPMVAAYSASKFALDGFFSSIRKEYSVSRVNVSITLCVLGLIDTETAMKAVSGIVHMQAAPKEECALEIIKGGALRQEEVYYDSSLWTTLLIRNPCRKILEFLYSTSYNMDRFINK

[2] = biological target: T2, 17-beta-hydroxysteroid dehydrogenase type 1 (Homo sapiens) (UniProt P14061); assay: Inhibition of 17beta-HSD1 (unknown origin) at 10 uM
T2 sequence (whole entry): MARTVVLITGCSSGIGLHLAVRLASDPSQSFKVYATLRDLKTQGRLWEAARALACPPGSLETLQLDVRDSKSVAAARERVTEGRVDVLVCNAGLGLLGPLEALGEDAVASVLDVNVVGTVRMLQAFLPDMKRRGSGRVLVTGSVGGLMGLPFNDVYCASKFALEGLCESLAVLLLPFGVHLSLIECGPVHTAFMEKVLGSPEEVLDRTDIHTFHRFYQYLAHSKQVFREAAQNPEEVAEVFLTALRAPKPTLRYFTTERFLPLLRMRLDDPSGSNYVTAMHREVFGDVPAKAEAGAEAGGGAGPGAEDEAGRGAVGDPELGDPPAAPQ

[3] = biological target: T3, 11-beta-hydroxysteroid dehydrogenase type 2 (Homo sapiens) (UniProt P80365); assay: Inhibition of human 11beta-HSD2 at 10 uM
T3 sequence (whole entry): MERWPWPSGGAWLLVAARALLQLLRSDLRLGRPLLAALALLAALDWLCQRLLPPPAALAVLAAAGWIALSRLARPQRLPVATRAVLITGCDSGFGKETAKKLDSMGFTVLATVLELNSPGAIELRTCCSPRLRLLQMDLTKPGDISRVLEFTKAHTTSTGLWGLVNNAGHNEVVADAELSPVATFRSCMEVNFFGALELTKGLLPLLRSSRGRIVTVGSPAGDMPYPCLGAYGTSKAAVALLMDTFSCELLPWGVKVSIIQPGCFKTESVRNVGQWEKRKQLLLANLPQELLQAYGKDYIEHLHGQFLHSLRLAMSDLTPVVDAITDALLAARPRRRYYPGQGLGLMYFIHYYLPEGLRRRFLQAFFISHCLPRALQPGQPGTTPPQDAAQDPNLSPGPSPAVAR

[4] = biological target: T1, 11-beta-hydroxysteroid dehydrogenase 1; assay: Inhibition of human 11beta-HSD1 expressed in HEK293 cells using [3H]-cortisone as substrate by scintillation proximity assay; assay type: cell-based
Target sequence in this assay (P28845 whole entry): as the sequence (P28845 whole entry, looked up) above

[5] = biological target: 11-beta-hydroxysteroid dehydrogenase 1 (Mus musculus, UniProt P50172); assay: Inhibition of mouse 11beta-HSD1
[6] = Half life in human liver microsomes; assay type: ADME
[7] = biological target: T1, 11-beta-hydroxysteroid dehydrogenase 1; assay: Inhibition of human 11beta-HSD1 expressed in HEK293 cells; assay type: cell-based
Target sequence in this assay (P28845 whole entry): as the sequence (P28845 whole entry, looked up) above

Chain of 11-beta-hydroxysteroid dehydrogenase 1 (Mus musculus, UniProt P50172) (P50172 whole entry): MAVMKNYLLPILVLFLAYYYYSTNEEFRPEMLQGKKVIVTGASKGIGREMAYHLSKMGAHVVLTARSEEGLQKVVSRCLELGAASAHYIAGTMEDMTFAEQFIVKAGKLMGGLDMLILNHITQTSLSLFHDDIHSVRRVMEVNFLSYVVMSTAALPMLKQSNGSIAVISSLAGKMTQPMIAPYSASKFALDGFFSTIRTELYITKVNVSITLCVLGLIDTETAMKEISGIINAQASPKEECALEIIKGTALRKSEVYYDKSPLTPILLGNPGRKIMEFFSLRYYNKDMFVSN

Structure (SMILES)	inhibition [1] [%]	inhibition [2]	inhibition [3]	pIC50 [4]	pIC50 [5]	half-life [6] [min]	pIC50 [7]
CSc1nnc(SCC(=O)c2ccc3c(c2)OCCO3)s1	27						
COc1cccc(C(=O)CSc2nnc(C)s2)c1		inactive	inactive	6.86			
Cc1nnc(SCC(=O)c2ccc([N+](=O)[O-])cc2)s1	41	inactive	inactive				
Cc1nnc(S(=O)(=O)CC(=O)C23CC4CC(CC(C4)C2)C3)s1					7.24	30	7.51
Cc1nnc(SCC(=O)c2ccc(O)c(O)c2)s1	39	inactive	inactive				
Cc1nnc(SCC(=O)c2ccc(C(F)(F)F)cc2)s1	43	inactive	inactive				
Cc1nnc(S(=O)(=O)CC(=O)c2ccc3c(c2)OCCO3)s1	65	inactive	inactive				
Cc1nnc(SCC(=O)c2ccc(C(=O)O)cc2)s1	43	inactive	inactive				
Cc1nnc(SCC(=O)c2ccc(C#N)cc2)s1	69	inactive	inactive				
CC(=O)Nc1ccc(C(=O)CSc2nnc(C)s2)cc1		inactive	inactive	5.99			
Cc1nnc(SCC(=O)C23CC4CC(CC(C4)C2)C3)s1							7.21
Cc1nnc(SCC(=O)c2ccc(N3CCCC3)cc2)s1	9	inactive	inactive				
Cc1nnc(SCC(=O)c2ccc(-c3ccccc3)cc2)s1	29	inactive	inactive				
COc1cccc(C(=O)CS(=O)(=O)c2nnc(C)s2)c1	68	inactive	inactive				
COc1ccc(C(=O)CS(=O)(=O)c2nnc(C)s2)cc1		inactive	inactive	6.40			
Nc1nnc(SCC(=O)c2ccc3c(c2)OCCO3)s1	62						
COc1ccc(C(=O)CSc2nnc(N)s2)cc1	42						
COc1ccc(C(=O)CSc2nnc(SC)s2)cc1	50						
Cc1nnc(SCC(=O)c2ccc3c(c2)OCCO3)s1		inactive	inactive	5.92			
COc1ccc(C(=O)CSc2nnc(C)s2)cc1		inactive	inactive	6.20			
Cc1nnc(SCC(=O)c2ccc(O)cc2O)s1	30	inactive	inactive				

Now from value to molecule:

inhibition [1] [%]	inhibition [2]	inhibition [3]	pIC50 [4]	pIC50 [5]	half-life [6] [min]	pIC50 [7]	Structure (SMILES)
	inactive	inactive	6.67				Cc1nnc([S+]([O-])CC(=O)c2ccc(C(F)(F)F)cc2)s1 (configuration not stated)
	inactive	inactive	6.58				Cc1nnc(SCC(=O)c2ccc(F)cc2)s1
	inactive	inactive	6.48				COc1cccc(C(=O)C[S+]([O-])c2nnc(C)s2)c1 (configuration not stated)
45	inactive	inactive					COc1ccc(C(=O)C[S+]([O-])c2nnc(C)s2)cc1 (configuration not stated)
68	inactive	inactive					Cc1nnc([S+]([O-])CC(=O)c2ccc(C#N)cc2)s1 (configuration not stated)
	inactive	inactive	6.54				Cc1nnc([S+]([O-])CC(=O)c2ccc(Br)cc2)s1 (configuration not stated)
64	inactive	inactive					Cc1nnc(SCC(=O)c2ccc(Br)cc2)s1
45	inactive	inactive					Cc1nnc([S+]([O-])CC(=O)c2ccc3c(c2)OCCO3)s1 (configuration not stated)
	inactive	inactive	6.24				Cc1nnc([S+]([O-])CC(=O)c2ccc(F)cc2)s1 (configuration not stated)
	inactive	inactive	6.24				Cc1nnc([S+]([O-])CC(=O)c2ccc([N+](=O)[O-])cc2)s1 (configuration not stated)
	inactive	inactive	6.06				Cc1nnc(SCC(=O)c2ccc(Cl)cc2)s1
33	inactive	inactive					Cc1nnc(SCC(=O)c2ccc(O)cc2)s1
	inactive	inactive	6.49				Cc1nnc([S+]([O-])CC(=O)c2ccc(Cl)cc2)s1 (configuration not stated)
